In the supplement of paper PMC10307832 one finds relative viability data, which are given here for one cell line.

Common to all, as to assay: relative viability (nuclei count vs DMSO), 5 days (fraction); higher = more cells survive
Compound in assay [1]: O[C@H]1CC[C@H](Nc2ncc3nc(Nc4c(F)cc(F)cc4F)n([C@H]4CCOC4)c3n2)CC1 [Tanzisertib] + CC(=O)Nc1cccc(-n2c(=O)n(C3CC3)c(=O)c3c(Nc4ccc(I)cc4F)n(C)c(=O)c(C)c32)c1 [Trametinib] (partner 0.02 µM)
The method, boiled down: (§1)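 Five library-drug doses in √10 steps were combined with a fixed anchor-drug dose, or a single drug was given alone, by pin tool to lung cancer cell lines in 1536-well plates the day after seeding. Nuclei were stained and counted after 5 days. Relative viability is the nuclei count in treated wells over that in vehicle wells, taken as the median of duplicate plates.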

Compound in assay [2]: C1CNCCC1C2=CC(=NN2)C3=CC=NC=C3 + Cc1cc(Nc2cc(N3CCN(C)CC3)nc(Sc3ccc(NC(=O)C4CC4)cc3)n2)n[nH]1 [Tozasertib] (partner 0.1 µM)
The method, boiled down:
as §1

Compound in assay [3]: C[C@@H](N)c1ccc(C(=O)Nc2ccnc3[nH]ccc23)cc1 + CC1(C)CCC(c2ccc(Cl)cc2)=C(CN2CCN(c3ccc(C(=O)NS(=O)(=O)c4ccc(N[C@H](CCN5CCOCC5)CSc5ccccc5)c(S(=O)(=O)C(F)(F)F)c4)cc3)CC2)C1 [Navitoclax] (partner 0.5 µM)
The method, boiled down:
as §1

Compound in assay [4]: O[C@H]1CC[C@H](Nc2ncc3nc(Nc4c(F)cc(F)cc4F)n([C@H]4CCOC4)c3n2)CC1 [Tanzisertib] + CS(=O)(=O)CCNCc1ccc(-c2ccc3ncnc(Nc4ccc(OCc5cccc(F)c5)c(Cl)c4)c3c2)o1 [Lapatinib] (partner 2 µM)
The method, boiled down:
as §1

In the case of UMC-11, the relative viability amounted to 0.735 in assay [1] (first compound 0.08 µM); 0.695 in assay [1] (first compound 0.253 µM); 0.759 in assay [1] (first compound 0.8 µM); 0.719 in assay [1] (first compound 2.53 µM); 0.764 in assay [1] (first compound 8 µM); 0.196 in assay [2] (first compound 0.08 µM). The relative viability stood at 0.214 in assay [2] (first compound 0.8 µM); 0.205 in assay [2] (first compound 2.53 µM); 0.207 in assay [2] (first compound 8 µM); 0.318 in assay [3] (first compound 0.04 µM); 0.323 in assay [3] (first compound 0.1265 µM); 0.332 in assay [3] (first compound 0.4 µM). The relative viability in assay [3] (first compound 1.265 µM) amounted to 0.27; in assay [3] (first compound 4 µM), 0.211; in assay [4] (first compound 0.08 µM), 1.13; in assay [4] (first compound 0.253 µM), 0.974; in assay [4] (first compound 0.8 µM), 1.1; in assay [4] (first compound 2.53 µM), 0.89. Also, the relative viability in assay [4] (first compound 8 µM) was found to be 0.84.
